The results in this text go back to patent US10246426B2, “Triazole compounds as T-type calcium channel blockers” (IDORSIA PHARMACEUTICALS LTD, priority 2014, dated 2019).

The experiment has as its target Cav3.2 (Homo sapiens, UniProt O95180). As to the kind of experiment: Calcium flux FLIPR assay, HEK293 cells recombinantly expressing Cav3.2. In kind it is cell-based. To be noted: Cav3.2-channel, Ca2+ entry stimulated by 10 mM CaCl2. In short, it runs like this: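 Fluo-4-loaded HEK293 cells stably expressing Cav3.2, seeded overnight at 37 °C; compounds diluted in TEAC buffer (pH 7.2) and preincubated 3 min before Ca2+ entry triggered with CaCl2 at 10 mM final. Area under FLIPR fluorescence trace fitted sigmoidally; IC50 relative to vehicle signal.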
(In general: A change in cytosolic calcium serves as a functional read-out for many receptors and channels.)

Cav3.2, sequence (O95180 whole entry, looked up): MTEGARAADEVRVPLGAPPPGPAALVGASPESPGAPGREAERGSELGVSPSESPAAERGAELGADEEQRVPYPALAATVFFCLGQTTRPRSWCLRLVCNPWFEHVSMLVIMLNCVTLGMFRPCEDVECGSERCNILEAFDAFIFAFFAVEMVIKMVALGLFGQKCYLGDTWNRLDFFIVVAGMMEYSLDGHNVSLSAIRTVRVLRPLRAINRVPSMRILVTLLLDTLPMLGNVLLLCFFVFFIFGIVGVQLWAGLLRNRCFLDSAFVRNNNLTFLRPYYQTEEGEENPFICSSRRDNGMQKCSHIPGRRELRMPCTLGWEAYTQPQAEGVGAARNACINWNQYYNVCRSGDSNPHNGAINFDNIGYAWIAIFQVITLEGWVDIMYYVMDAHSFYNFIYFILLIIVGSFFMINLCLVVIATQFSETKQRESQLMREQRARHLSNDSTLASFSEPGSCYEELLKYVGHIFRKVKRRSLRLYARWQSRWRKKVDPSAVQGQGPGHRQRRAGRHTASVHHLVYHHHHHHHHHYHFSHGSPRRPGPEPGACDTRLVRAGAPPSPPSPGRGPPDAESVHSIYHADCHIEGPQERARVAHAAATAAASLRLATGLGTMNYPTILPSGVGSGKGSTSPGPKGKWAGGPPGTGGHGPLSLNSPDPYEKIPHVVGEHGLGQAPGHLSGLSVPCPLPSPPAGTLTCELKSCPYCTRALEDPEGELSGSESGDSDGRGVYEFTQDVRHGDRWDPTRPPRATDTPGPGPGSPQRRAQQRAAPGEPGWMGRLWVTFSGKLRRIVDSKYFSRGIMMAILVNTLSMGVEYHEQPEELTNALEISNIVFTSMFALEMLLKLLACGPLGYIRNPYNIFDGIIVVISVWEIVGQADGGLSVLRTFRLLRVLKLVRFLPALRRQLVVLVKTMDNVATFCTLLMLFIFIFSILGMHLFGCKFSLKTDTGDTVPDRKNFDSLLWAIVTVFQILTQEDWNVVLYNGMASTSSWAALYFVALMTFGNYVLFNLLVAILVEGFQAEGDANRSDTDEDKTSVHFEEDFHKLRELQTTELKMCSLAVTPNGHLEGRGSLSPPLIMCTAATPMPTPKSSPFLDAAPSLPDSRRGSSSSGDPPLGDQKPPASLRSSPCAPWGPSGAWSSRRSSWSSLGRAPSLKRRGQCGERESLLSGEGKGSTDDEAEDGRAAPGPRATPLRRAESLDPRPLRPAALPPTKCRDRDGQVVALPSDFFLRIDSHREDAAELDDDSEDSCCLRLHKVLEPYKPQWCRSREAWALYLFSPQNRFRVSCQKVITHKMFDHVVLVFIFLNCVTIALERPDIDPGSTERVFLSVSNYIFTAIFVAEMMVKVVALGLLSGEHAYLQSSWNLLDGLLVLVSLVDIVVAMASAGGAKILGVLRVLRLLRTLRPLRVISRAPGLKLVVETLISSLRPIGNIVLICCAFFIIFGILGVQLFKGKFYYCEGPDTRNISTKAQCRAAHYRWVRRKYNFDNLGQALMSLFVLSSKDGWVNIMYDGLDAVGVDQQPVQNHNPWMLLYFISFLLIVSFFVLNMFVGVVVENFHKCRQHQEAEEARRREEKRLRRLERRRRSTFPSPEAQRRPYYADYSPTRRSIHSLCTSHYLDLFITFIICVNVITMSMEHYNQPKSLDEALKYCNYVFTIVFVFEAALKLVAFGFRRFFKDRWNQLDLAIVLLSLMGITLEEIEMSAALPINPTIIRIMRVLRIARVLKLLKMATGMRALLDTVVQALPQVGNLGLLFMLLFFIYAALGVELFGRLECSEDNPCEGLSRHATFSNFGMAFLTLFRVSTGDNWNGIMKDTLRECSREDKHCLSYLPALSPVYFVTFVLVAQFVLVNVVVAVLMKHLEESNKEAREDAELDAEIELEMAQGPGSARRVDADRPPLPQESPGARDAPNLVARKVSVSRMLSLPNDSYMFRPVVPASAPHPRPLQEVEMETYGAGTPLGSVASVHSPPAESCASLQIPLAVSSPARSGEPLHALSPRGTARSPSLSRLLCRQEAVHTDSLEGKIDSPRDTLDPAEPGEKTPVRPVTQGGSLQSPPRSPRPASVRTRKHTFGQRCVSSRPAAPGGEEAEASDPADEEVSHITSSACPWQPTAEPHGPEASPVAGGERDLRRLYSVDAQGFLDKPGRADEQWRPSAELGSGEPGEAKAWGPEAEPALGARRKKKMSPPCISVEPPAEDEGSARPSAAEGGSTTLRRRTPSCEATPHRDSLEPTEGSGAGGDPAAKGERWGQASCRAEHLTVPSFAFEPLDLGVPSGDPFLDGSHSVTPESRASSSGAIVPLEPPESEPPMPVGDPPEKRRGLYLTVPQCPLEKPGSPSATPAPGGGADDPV

`Cc1cc(Cn2ncc(NC(=O)Cc3ccc4c(c3)c(C)nn4C)n2)ccc1C#N` [Example 169, N-[2-(4-Cyano-3-methyl-benzyl)-2H-[1,2,3]triazol-4-yl]-2-(1,3-dimethyl-1H-indazol-5-yl)-acetamide]: the IC50 (in general, the midpoint of a concentration-inhibition curve) turned out to be 96 nM.

Take `Cc1cc(Cn2ncc(NC(=O)Cc3ccc(N4CCCC4)nc3)n2)ccc1C#N` [Example 170, N-[2-(4-Cyano-3-methyl-benzyl)-2H-[1,2,3]triazol-4-yl]-2-(6-pyrrolidin-1-yl-pyridin-3-yl)-acetamide]: the IC50 stood at 50 nM. Consider `Cc1cc(Cn2ncc(NC(=O)Cc3ccc4c(c3)c(C)cn4C)n2)ccc1C#N` [Example 171, N-[2-(4-Cyano-3-methyl-benzyl)-2H-[1,2,3]triazol-4-yl]-2-(1,3-dimethyl-1H-indol-5-yl)-acetamide], for which the IC50 came to 22 nM.

As for `Cn1ncc2cc(CC(=O)Nc3cnn(Cc4ccc(F)c(C#N)c4)n3)ccc21` [Example 173, N-[2-(3-Cyano-4-fluoro-benzyl)-2H-[1,2,3]triazol-4-yl]-2-(1-methyl-1H-indazol-5-yl)-acetamide], the IC50 came to 150 nM. Regarding `CC(C)c1ccc(CC(=O)Nc2cnn(Cc3ccc(F)c(C#N)c3)n2)cc1` [Example 174, N-[2-(3-Cyano-4-fluoro-benzyl)-2H-[1,2,3]triazol-4-yl]-2-(4-isopropyl-phenyl)-acetamide], the 50% inhibitory concentration (IC50) came to 28 nM. The figure for `N#Cc1ccc(Cn2ncc(NC(=O)Cc3ccc(OCC4(F)COC4)cc3)n2)cc1F` [Example 175, N-[2-(4-Cyano-3-fluoro-benzyl)-2H-[1,2,3]triazol-4-yl]-2-[4-(3-fluoro-oxetan-3-ylmethoxy)-phenyl]-acetamide] is 100 nM. On to `Cc1nn(C)c2ccc(CC(=O)Nc3cnn(Cc4ccc(C#N)c(F)c4)n3)cc12` [Example 177, N-[2-(4-Cyano-3-fluoro-benzyl)-2H-[1,2,3]triazol-4-yl]-2-(1,3-dimethyl-1H-indazol-5-yl)-acetamide], for which the IC50 worked out at 33 nM. `CC(C)(C)c1ccc(CC(=O)Nc2cnn(Cc3ccc(OC(F)F)c(F)c3)n2)cc1` [Example 178, 2-(4-tert-Butyl-phenyl)-N-[2-(4-difluoromethoxy-3-fluoro-benzyl)-2H-[1,2,3]triazol-4-yl]-acetamide]: the IC50 is 49 nM. Consider `Cn1ncc2cc(CC(=O)Nc3cnn(Cc4ccc(OC(F)F)c(F)c4)n3)ccc21` [Example 179, N-[2-(4-Difluoromethoxy-3-fluoro-benzyl)-2H-[1,2,3]triazol-4-yl]-2-(1-methyl-1H-indazol-5-yl)-acetamide], for which the IC50 was determined as 22 nM.

For the compound `CC(C)c1ccc(CC(=O)Nc2cnn(Cc3ccc(OC(F)F)c(F)c3)n2)cc1` [Example 180, N-[2-(4-Difluoromethoxy-3-fluoro-benzyl)-2H-[1,2,3]triazol-4-yl]-2-(4-isopropyl-phenyl)-acetamide], the IC50 was found to be 43 nM. For `O=C(Cc1ccc(C2(C(F)(F)F)CC2)cc1)Nc1cnn(Cc2ccc(OC(F)F)c(F)c2)n1` [Example 181, N-[2-(4-Difluoromethoxy-3-fluoro-benzyl)-2H-[1,2,3]triazol-4-yl]-2-[4-(1-trifluoromethyl-cyclopropyl)-phenyl]-acetamide], the half-maximal inhibitory concentration (IC50) stood at 86 nM. As for `O=C(Cc1ccc(N2CCC(F)(F)C2)nc1)Nc1cnn(Cc2ccc(OC(F)F)c(F)c2)n1` [Example 182, N-[2-(4-Difluoromethoxy-3-fluoro-benzyl)-2H-[1,2,3]triazol-4-yl]-2-[6-(3,3-difluoro-pyrrolidin-1-yl)-pyridin-3-yl]-acetamide], the 50% inhibitory concentration (IC50) was 13 nM. Take `O=C(Cc1ccc(N2CCCC2)nc1)Nc1cnn(Cc2ccc(OC(F)F)c(F)c2)n1` [Example 183, N-[2-(4-Difluoromethoxy-3-fluoro-benzyl)-2H-[1,2,3]triazol-4-yl]-2-(6-pyrrolidin-1-yl-pyridin-3-yl)-acetamide]: the IC50 came out at 26 nM. As for `CC(C)(C)c1ccc(CC(=O)Nc2cnn(Cc3ccc(OC(F)(F)F)c(F)c3)n2)cc1` [Example 184, 2-(4-tert-Butyl-phenyl)-N-[2-(3-fluoro-4-trifluoromethoxy-benzyl)-2H-[1,2,3]triazol-4-yl]-acetamide], the half-maximal inhibitory concentration (IC50) came out at 83 nM.

Turning to `Cn1ncc2ccc(CC(=O)Nc3cnn(Cc4ccc(OC(F)(F)F)c(F)c4)n3)cc21` [Example 185, N-[2-(3-Fluoro-4-trifluoromethoxy-benzyl)-2H-[1,2,3]triazol-4-yl]-2-(1-methyl-1H-indazol-6-yl)-acetamide], the concentration for half-maximal inhibition (IC50) was 17 nM. `Cn1ncc2cc(CC(=O)Nc3cnn(Cc4ccc(OC(F)(F)F)c(F)c4)n3)ccc21` [Example 186, N-[2-(3-Fluoro-4-trifluoromethoxy-benzyl)-2H-[1,2,3]triazol-4-yl]-2-(1-methyl-1H-indazol-5-yl)-acetamide]: the IC50 stood at 8.8 nM. In the case of `CC(C)c1ccc(CC(=O)Nc2cnn(Cc3ccc(OC(F)(F)F)c(F)c3)n2)cc1` [Example 187, N-[2-(3-Fluoro-4-trifluoromethoxy-benzyl)-2H-[1,2,3]triazol-4-yl]-2-(4-isopropyl-phenyl)-acetamide], the concentration for half-maximal inhibition (IC50) worked out at 65 nM. As for `O=C(Cc1ccc(C2(C(F)(F)F)CC2)cc1)Nc1cnn(Cc2ccc(OC(F)(F)F)c(F)c2)n1` [Example 188, N-[2-(3-Fluoro-4-trifluoromethoxy-benzyl)-2H-[1,2,3]triazol-4-yl]-2-[4-(1-trifluoromethyl-cyclopropyl)-phenyl]-acetamide], the IC50 stood at 96 nM. `O=C(Cc1ccc(N2CCC(F)(F)C2)nc1)Nc1cnn(Cc2ccc(OC(F)(F)F)c(F)c2)n1` [Example 189, 2-[6-(3,3-Difluoro-pyrrolidin-1-yl)-pyridin-3-yl]-N-[2-(3-fluoro-4-trifluoromethoxy-benzyl)-2H-[1,2,3]triazol-4-yl]-acetamide]: the half-inhibitory concentration (IC50) was 17 nM.

Turning to `CCn1ncc2cc(CC(=O)Nc3cnn(Cc4ccc(OC(F)(F)F)c(F)c4)n3)ccc21` [Example 190, 2-(1-Ethyl-1H-indazol-5-yl)-N-[2-(3-fluoro-4-trifluoromethoxy-benzyl)-2H-[1,2,3]triazol-4-yl]-acetamide], the IC50 came out at 14 nM. For `Cc1nn(C)c2ccc(CC(=O)Nc3cnn(Cc4ccc(OC(F)(F)F)c(F)c4)n3)cc12` [Example 191, 2-(1,3-Dimethyl-1H-indazol-5-yl)-N-[2-(3-fluoro-4-trifluoromethoxy-benzyl)-2H-[1,2,3]triazol-4-yl]-acetamide], the IC50 came to 11 nM.

Take `O=C(Cc1ccc(N2CCCC2)nc1)Nc1cnn(Cc2ccc(OC(F)(F)F)c(F)c2)n1` [Example 192, N-[2-(3-Fluoro-4-trifluoromethoxy-benzyl)-2H-[1,2,3]triazol-4-yl]-2-(6-pyrrolidin-1-yl-pyridin-3-yl)-acetamide]: the IC50 was 23 nM. As for `N#Cc1ccc(Cn2ncc(NC(=O)Cc3ccc(OCC4(F)COC4)cc3)n2)cc1` [Example 194, N-[2-(4-Cyano-benzyl)-2H-[1,2,3]triazol-4-yl]-2-[4-(3-fluoro-oxetan-3-ylmethoxy)-phenyl]-acetamide], the IC50 is 340 nM.

Regarding `N#Cc1ccc(Cn2ncc(NC(=O)Cc3ccc(C4(C(F)(F)F)CC4)cc3)n2)cc1` [Example 195, N-[2-(4-Cyano-benzyl)-2H-[1,2,3]triazol-4-yl]-2-[4-(1-trifluoromethyl-cyclopropyl)-phenyl]-acetamide], the IC50 was determined as 63 nM.
